Results from the supplement of paper PMC13207355.
Structures can show the parent of a compound that is named as a salt.

How the values were obtained:
Settings in all cases: exposure time: 72 h
[1] = system: E57 (patient-derived glioblastoma stem cells of mesenchymal subtype); test: surviving fraction (nuclei count normalised to DMSO); higher = more cells surviving (less toxic)
[2] = system: E34 (patient-derived glioblastoma stem cells of proneural subtype); test: as above
[3] = system: E21 (patient-derived glioblastoma stem cells of mesenchymal subtype); test: as above
[4] = system: E13 (patient-derived glioblastoma stem cells of classical subtype); test: as above
[5] = system: E28 (patient-derived glioblastoma stem cells of classical subtype); test: as above
[6] = system: E31 (patient-derived glioblastoma stem cells of proneural subtype); test: as above
[7] = system: FT3469 (normal neural stem cell line); test: as above
[8] = system: E57; test: phenotypic distance (Euclidean, principal components) from DMSO controls (arbitrary units); higher = stronger morphological change
[9] = system: E34; test: as above
[10] = system: E21; test: as above
[11] = system: E13; test: as above
[12] = system: E28; test: as above
[13] = system: E31; test: as above
[14] = system: FT3469; test: as above
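For phenotypic distance (Euclidean, principal components) from DMSO controls in this document: cell Painting imaging in 384-well plates, CellProfiler features reduced to at least 20 principal components, Euclidean distance versus same-plate DMSO vehicle wells (0.1% v/v), median over six images per well.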
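For surviving fraction (nuclei count normalised to DMSO) in this document: nuclei counted by high-content imaging of Hoechst-stained cells in laminin-coated 384-well plates, relative to 0.1% DMSO vehicle wells, with staurosporine as cell-death control.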

CCCCC(CC)CNC(=N)NC(=N)NCCCCCCNC(=N)NC(=N)NCC(CC)CCCC (stereo not drawn) [Alexidine dihydrochloride]
Settings | phenotypic distance | surviving fraction
[1], 4.1 nM | – | 1.01
[1], 12.3 nM | – | 1.01
[1], 37 nM | – | 0.91
[1], 111.1 nM | – | 1.03
[1], 333.3 nM | – | 0.828
[1], 1000 nM | – | 0.252
[1], 3000 nM | – | 0.00967
[2], 4.1 nM | – | 0.86
[2], 12.3 nM | – | 1.11
[2], 37 nM | – | 0.972
[2], 111.1 nM | – | 0.991
[2], 333.3 nM | – | 0.939
[2], 1000 nM | – | 0.512
[2], 3000 nM | – | 0.0472
[3], 4.1 nM | – | 0.967
[3], 12.3 nM | – | 0.916
[3], 37 nM | – | 0.945
[3], 111.1 nM | – | 1.02
[3], 333.3 nM | – | 1.07
[3], 1000 nM | – | 0.368
[3], 3000 nM | – | 0.00297
[4], 4.1 nM | – | 0.884
[4], 12.3 nM | – | 0.905
[4], 37 nM | – | 0.978
[4], 111.1 nM | – | 0.877
[4], 333.3 nM | – | 0.607
[4], 1000 nM | – | 0.602
[4], 3000 nM | – | 0.0804
[5], 4.1 nM | – | 0.911
[5], 12.3 nM | – | 0.933
[5], 37 nM | – | 0.847
[5], 111.1 nM | – | 1.04
[5], 333.3 nM | – | 0.694
[5], 1000 nM | – | 0.233
[5], 3000 nM | – | 0.0064
[6], 4.1 nM | – | 0.955
[6], 12.3 nM | – | 0.825
[6], 37 nM | – | 1.1
[6], 111.1 nM | – | 1.02
[6], 333.3 nM | – | 0.871
[6], 1000 nM | – | 0.125
[6], 3000 nM | – | 0.013
[7], 4.1 nM | – | 0.76
[7], 12.3 nM | – | 0.814
[7], 37 nM | – | 0.863
[7], 111.1 nM | – | 1.16
[7], 333.3 nM | – | 0.863
[7], 1000 nM | – | 0.504
[7], 3000 nM | – | 0.0403
[8], 4.1 nM | 0.655 | –
[8], 12.3 nM | 0.696 | –
[8], 37 nM | 0.435 | –
[8], 111.1 nM | 0.715 | –
[8], 333.3 nM | 1.53 | –
[8], 1000 nM | 6.34 | –
[8], 3000 nM | 10.4 | –
[9], 4.1 nM | 1.35 | –
[9], 12.3 nM | 1.19 | –
[9], 37 nM | 0.769 | –
[9], 111.1 nM | 0.582 | –
[9], 333.3 nM | 0.858 | –
[9], 1000 nM | 4.01 | –
[9], 3000 nM | 14.9 | –
[10], 4.1 nM | 0.597 | –
[10], 12.3 nM | 1.12 | –
[10], 37 nM | 0.958 | –
[10], 111.1 nM | 0.651 | –
[10], 333.3 nM | 0.84 | –
[10], 1000 nM | 4.98 | –
[10], 3000 nM | 19 | –
[11], 4.1 nM | 0.582 | –
[11], 12.3 nM | 0.387 | –
[11], 37 nM | 0.788 | –
[11], 111.1 nM | 0.757 | –
[11], 333.3 nM | 1.76 | –
[11], 1000 nM | 1.39 | –
[11], 3000 nM | 10.1 | –
[12], 4.1 nM | 1.07 | –
[12], 12.3 nM | 0.612 | –
[12], 37 nM | 0.518 | –
[12], 111.1 nM | 0.461 | –
[12], 333.3 nM | 1.31 | –
[12], 1000 nM | 3.13 | –
[12], 3000 nM | 12.9 | –
[13], 4.1 nM | 0.786 | –
[13], 12.3 nM | 0.686 | –
[13], 37 nM | 1.01 | –
[13], 111.1 nM | 0.884 | –
[13], 333.3 nM | 0.669 | –
[13], 1000 nM | 5.57 | –
[13], 3000 nM | 11.7 | –
[14], 4.1 nM | 1.28 | –
[14], 12.3 nM | 1.28 | –
[14], 37 nM | 1.13 | –
[14], 111.1 nM | 0.545 | –
[14], 333.3 nM | 1.44 | –
[14], 1000 nM | 2.26 | –
[14], 3000 nM | 11.7 | –
